Laboratory results published in ChEMBL document CHEMBL1135025, “Synthesis of iodinated biochemical tools related to the 2-azetidinone class of cholesterol absorption inhibitors” (2002).
Activity calls are given as the source filed them. The calls are words filed in the database; no cut-off is given here.

Key:
[1] = system: Cricetinae gen. sp.; test: Effective dose required to produe activity in cholesterol hamster assay was determined; na means not applicable; format: functional, organism-based; details: Cricetulus griseus
[2] = system: Cricetinae gen. sp.; test: In vivo activity in a cholesterol-fed hamster assay was determined at 1 mg/kg/day; format: functional, Cricetulus griseus
[3] = system: Cricetinae gen. sp.; test: Effective dose required to produe activity in cholesterol hamster assay was determined; format: functional, Cricetulus griseus
[4] = system: Cricetinae gen. sp.; test: In vivo activity in a cholesterol-fed hamster assay was determined at 50 mg/kg/day; format: functional, Cricetulus griseus
[5] = system: Cricetinae gen. sp.; test: In vivo activity in a cholesterol-fed hamster assay was determined at 10 mg/kg/day; format: functional, Cricetulus griseus

| SMILES | ED50 [1] | Reduction [2] [%] | ED50 [3] [mg/kg/day] | Reduction [4] [%] | Reduction [5] [%] |
| --- | --- | --- | --- | --- | --- |
| O=C1[C@H](CC[C@H](O)c2ccc(I)cc2)[C@@H](c2ccc(O)cc2)N1c1ccc(F)cc1 | inactive | -54 | – | – | – |
| O=C1[C@H](CC[C@H](O)c2ccc(F)cc2)[C@@H](c2ccc(O)cc2)N1c1ccc(I)cc1 | – | -63 | 0.49 | – | – |
| COc1ccc([C@@H]2[C@@H](CCCc3ccccc3)C(=O)N2c2ccc(I)cc2)cc1 (racemic) | inactive | – | – | -82 | – |
| COc1ccc([C@@H]2[C@@H](CCCc3ccc(I)cc3)C(=O)N2c2ccc(OC)cc2)cc1 (racemic) | inactive | – | – | -56 | – |
| O=C(O)[C@H]1OC(Oc2ccc([C@@H]3[C@@H](CC[C@H](O)c4ccc(F)cc4)C(=O)N3c3ccc(I)cc3)cc2)C(O)[C@@H](O)[C@@H]1O (single isomer, unassigned) | inactive | -54 | – | – | – |
| O=C1[C@H](CC[C@H](O)c2ccc(F)cc2)[C@@H](c2ccc(O)cc2)N1c1ccc(F)cc1 [EZETIMIBE] | – | -100 | 0.04 | – | – |
| COc1ccc([C@@H]2[C@@H](CCCc3ccccc3)C(=O)N2c2ccc(OC)cc2)cc1 [SCH-48461] | – | – | 2.2 | – | -93 |
